Source: US9388126B2, “Sigma receptor ligands and methods of modulating cellular protein homeostasis using same” (Drexel University, priority 2012, dated 2016)

Tests used:
[1] = test system: MDA-MB-468 breast tumor cells; test: Akt, S6K and ERK phosphorylation immunoblots; format: cell-based, human; settings: 10 μM, 24 hours
Experimental: FIG. 40, comprising FIGS. 40A-40C, illustrates Sigma1 antagonist modulation of Akt, S6K, and ERK phosphorylation. MDA-MB-468 breast tumor cells were treated for 24 hours with 10 μM IPAG (Sigma1 antagonist) or (+)SKF-10047 (SKF, Sigma1 agonist). Treated cells were harvested and cellular proteins were extracted with a buffer containing 1% Sodium Dodecyl Sulfate (SDS) and deoxycholate (DOC), supplemented with phosphatase and protease inhibitors. FIG. 40A is an image of an immunoblot illustrating Akt phosphorylation. […] Akt phosphorylation at threonine 308 was not altered in any of the samples (not shown). Equivalent loading was confirmed with an anti-GAPDH antibody. FIG. 40B is an image of an immunoblot illustrating phosphorylation. Phosphorylation of mTOR substrate, p70S6K at threonine 389 decreased 3-fold in IPAG, but not SKF treated cells. Total p70S6K was immunoblotted as a loading control. FIG. 40C is an immunoblot illustrating that p44/42 ERK1/2phosphorylation at threonine 202 and tyrosine 204 was abrogated by 24 hour treatment with IPAG. Data shown is representative of two independent experiments.

[2] = test system: MDA-MB-468 (GFP-LC3) cells; test: GFP-LC3 punctae (autophagosome formation) microscopy assay; format: cell-based, human; settings: for GFP-LC3 punctae per cell: drug concentrations up to 100 μM; for EC50: Homo sapiens, MDA-MB-468, 24 hours of treatment, read-out: potency (EC50±S.E.M.) of autophagosome formation (GFP-LC3 punctae); for concentration at which precipitous cell death occurred: following 24 hours of treatment
Experimental: The human GFP-LC3 expression plasmid, pEGFP-LC3 (a gift from Drs. Grazia Ambrosini and Gary K. Schwartz, MSKCC), was stably transfected into MDA-MB-468 and selected with 0.5 mg/ml G418 sulfate. Stable populations were generated and compared to parental MDA-MB-468 for Sigma1 expression and autophagic and growth inhibitory response to Sigma ligands. GFP-LC3 translocation (punctae formation) was assessed by microscopy in MDA-MB-468 (GFP-LC3) stable cell populations. For microscopy-based experiments, cells were seeded onto Lab-Tek II glass chamber slides (Nalge Nunc International). […] Images of GFP-LC3 punctae were acquired with a Zeiss Axioplan 2 Imaging widefield microscope using Axiovision LE software. Punctae were counted using the spot quantitation program in the Fluoro-Chem software package (Alpha Innotech) and confirmed in parallel by manual counting. Autophagosome formation in MDAMB-468 (GFP-LC3) cells was quantitated as the mean number of GFP-LC3 punctae per GFP positive cell.
Initially, an established immunoblot-based assay to detect microtubule associated protein light chain 3 (LC3) lipidation was used to test for the activation of autophagy. […] Since transient transfections can produce spurious GFP-LC3 aggregates, stable GFP-LC3 transfected populations of MDA-MB-468 (GFP-LC3) were generated. […]

[3] = test system: MCF-7, T47D and MDA-MB-468 cells; test: Cell proliferation by Alamar blue reduction, breast adenocarcinoma cultures; format: cell-based, human; set-up: anti-proliferative effect: dose or concentration left out as unconfirmed; settings: for anti-proliferative effect: 4 days; for inhibition of cell proliferation: after 4 days of treatment, six drug concentrations
Description: In vitro cell proliferation was quantitated by Alamar blue reduction. The anti-proliferative effects of six drug concentrations of the indicated drugs were quantitated after 4 days of treatment.

[4] = test system: T47D and MDA-MB-468 cells; test: Cell cycle profile (G1, S, G2 phase cells); format: cell-based, human; settings: 24 hours; IPAG 1 μM (T47D) or 10 μM (MDA-MB-468); (+)-SKF-10047 10 μM
Experimental: FIG. 30, comprising FIGS. 30A-30B, illustrates that Sigma1 antagonists mediate cell cycle arrest. […] FIG. 30A is a graph illustrating the percentage of G1, S, and G2 phase cells in T47D cells treated for 24 hours with DMSO (vehicle control), 1 μM IPAG (Sigma1 antagonist), or 10 μM (+)SKF-10047 (Sigma1 agonist). FIG. 30 B is a graph illustrating the percentage of G1, S, and G2 phase cells in MDA-MB-468 cells treated for 24 hours with DMSO (vehicle control), 10 μM IPAG (Sigma1 antagonist), or 10 μM (+)-SKF-10047 (Sigma1 agonist).

[5] = test system: T-47D breast adenocarcinoma cells; test: Cell size by flow cytometry (mean FSC-H, G1 phase); format: cell-based, human; settings: 10 μM, 24 hours; control 412±5
Experimental: FIG. 31A is a differential interference contrast (DIC) image of MDA-MB-468 breast adenocarcinoma cells treated for ˜20 hours with DMSO (drug vehicle control), 10 μM IPAG (antagonist) or 10 μM PRE084 (agonist). A twenty-micron bar is shown in each image. Data are presented as mean±SEM. FIG. 31B is a graph illustrating the finding that IPAG diminished the mean cell size (FSC-H) of MDA-MB-468 breast tumor cells in a time-responsive manner. The mean FSC-H of 370±5 at to decreased to 323±4 after 24 hours of IPAG treatment and to 267±2 after 48 hours of treatment. Two-tailed t-tests were performed to determine statistical significance. For IPAG treatment compared to control (DMSO) and Sigma agonists (SKF and PRE084), P=0.0002 at d1 and P=0.00013 at d2. Data were generated from three to five independent determinations for each time-point. Flow cytometry was used to measure mean cell size (mean FSC-H) of T-47D breast adenocarcinoma cells. FIG. 31C is a bar graph illustrating T-47D cells treated for 24 hours with 10 μM indicated Sigma ligand. IPAG and BD 1047 (Sigma1 antagonists) diminished cell size from a mean FSC-H of 412±5 for control (DMSO) cells versus 341±7 and 381±8 for IPAG and BD1047 treated cells, respectively. […] Data represent 5 independent determinations (*P<0.05, ***P<0.001). FIG. 31D is a bar graph illustrating how IPAG (antagonist) decreases cell size in a dose responsive manner. T-47D were treated for 24 h with 1 and 10 μM IPAG, and mean FSC-H was measured. FIG. 31E is a graph illustrating that T47D cell size decreases over time. T-47D cells were treated for a total of 48 hours with 10 μM of the indicated Sigma ligands. […] Neither Sigma1 agonist, (+)-SKF10047 and PRE084, altered cell size. […] Two-tailed t-tests were performed to determine statistical significance. For IPAG treatment compared to control (DMSO) and Sigma1 agonists (SKF and PRE084), P=0.0002 at d1 and P<0.0001 at d2. For FIGS. 31B-31E, the mean FSC-H was determined for each cell cycle population (i.e., G1, S, G2/M), and data is shown for G1 phase cells. S and G2/M phase cells responded similarly (data not shown).

MDA-MB-468 cells = test: Cell death by trypan blue exclusion; format: cell-based, human; settings: 3-MA alone (5 mM), 24 hours
Experimental: Trypan blue exclusion and propidium iodide staining were used to quantify general cell death and the presence of apoptotic cell death was confirmed by immunoblot. The percentage of dead cells in a given population was determined by quantifying the number of trypan blue positive (dead) cells and dividing by the total number of trypan blue positive and negative cells.

[6] = test system: MDA-MB-468 breast adenocarcinoma cells; test: LC3 lipidation (LC3II) immunoblot; format: cell-based, human; settings: 10 μM, 24 hours
Experimental: Cells were lysed and proteins extracted in a modified RIPA buffer (25 mM Tris-HCl pH 7.6, 150 mM NaCl, 1% NP-40, 1% sodium deoxycholate and 0.1% SDS) supplemented with 10% glycerol (volume/volume), complete protease inhibitor cocktail (Roche), and Halt phosphatase inhibitor cocktail (Pierce). Approximately 10-20 μg of detergent soluble protein were resolved on NOVEX 10-20% polyacrylamide Tris-glycine gels (InVitrogen). Immunoblots were performed in a 20 mM Tris-buffered 137 mM saline solution (pH 7.6) containing 0.1% Tween-20 (polyoxyethylene (20) sorbitan monolaurate) and 5% (weight/volume) blotting grade non-fat dry milk (BioRad). The Lumigen PS-3 enhanced chemiluminescence kit (GE Healthcare) was used to reveal immunoblotted proteins.
Initially, an established immunoblot-based assay to detect microtubule associated protein light chain 3 (LC3) lipidation was used to test for the activation of autophagy. […] Since transient transfections can produce spurious GFP-LC3 aggregates, stable GFP-LC3 transfected populations of MDA-MB-468 (GFP-LC3) were generated. These cells were treated for 24 hours with increasing concentrations of Sigma receptor antagonists and agonists, and were compared to basal and DMSO treated controls (FIGS. 4B & 4C).

MCF7 tumor xenograft = test: MCF7 tumor xenograft, tamoxifen potentiation by rimcazole; format: in vivo, athymic mice; settings: for inhibition of tumor growth: after 11 days of daily i.p. treatment, tamoxifen 1 mg/kg, Rimcazole 10 mg/kg, each alone
Experimental: Preliminary tumor xenograft experiments were performed according to MSKCC Tumor Assessment Core facility protocol. Briefly, β-estradiol treated athymic mice were injected with MCF7 cells, and drug treatment was initiated when mean tumor volume reached approximately 140 mm^3, which occurred 17 days following MCF-7 injection. Daily i.p. drug injections were performed for up to 11 days, and tumor volume was quantified by the formula: tumor volume=L×W^2×π/6. In this pilot experiment, 3-5 mice were tested per group. […] An extended time course, with more mice per group and multiple drug doses, may be performed to determine whether the tumor growth inhibitory effect of combined drug treatment is additive or synergistic.

**Q.** C=CCN1CC[C@]2(C)c3cc(O)ccc3C[C@H]1[C@H]2C (relative stereo) [(+)-SKF10047, [2S-(2α,6α,11R*]-1,2,3,4,5,6-hexahydro-6,11-dimethyl-3-(2-propenyl)-2,6-methano-3-benzazocin-8-ol] was tested. Which “decrease of Akt phosphorylation at serine 473” value [1] did it give?
**A.** did not alter Akt phosphorylation

**Q.** What about the “GFP-LC3 punctae per cell” value ([2]; 24 hours) of the same molecule?
**A.** ≤ 5±1 punctae per cell

**Q.** What about the anti-proliferative effect [3] of the same molecule?
**A.** ineffective

**Q.** And the cell cycle profile [4]?
**A.** did not present significant difference in cell cycle profile

**Q.** What about the “mean FSC-H (relative cell size)” value [5] of the same molecule?
**A.** did not alter cell size

**Q.** What does the source list for CC(C)=CCN1CC[C@]2(C)c3cc(O)ccc3C[C@H]1[C@H]2C (relative stereo) [(+)-pentazocine, (+)-[2S-(2,6,11R*)]-1,2,3,4,5,6-hexahydro-6,1-dimethyl-3-(3-methyl-2-butenyl)-2,6-methano-3-benzazocin-8-ol]?
**A.** GFP-LC3 punctae per cell ([2]; 24 hours): ≤ 6±1 punctae per cell; anti-proliferative effect [3]: ineffective

**Q.** Which “inhibition of cell proliferation” value [3] does the source give for CN(C)CCN(C)CCc1ccc(Cl)c(Cl)c1 [BD1047, N′-[2-(3,4-dichlorophenyl)ethyl]-N,N,N′-trimethylethane-1,2-diamine] here?
**A.** also inhibited cell proliferation

**Q.** What about the “mean FSC-H (relative cell size)” value [5] of the same molecule?
**A.** 381±8

**Q.** How did the “inhibition of cell proliferation” value [3] turn out when CN1CCN(CCc2ccc(Cl)c(Cl)c2)CC1 [BD1063, 1-[2-(3,4-dichlorophenyl)ethyl]-4-methylpiperazine] was run?
**A.** also inhibited cell proliferation

**Q.** Which results are given for Cn1cnc(N)c2ncnc1-2 [Compound 3-MA, 3-methyladenine]?
**A.** dead cells per well (MDA-MB-468 cells): 6±2%; punctae per cell ([2]; 5 mM 3-MA alone, 24 hours): 5±1 punctae per cell

**Q.** With COc1cccc2c1CCCC2CCCN1CCN(C2CCCCC2)CC1 (centres unmarked) [PB28, 1-cyclohexyl-4-[3-(5-methoxy-1,2,3,4-tetra-hydronaphthalen-1-yl)propyl]piperazine] as the molecule, how does the EC50 [2] read?
**A.** 52 ± 9 µM

**Q.** What about the “concentration at which precipitous cell death occurred” value [2] of the same molecule?
**A.** 100 µM

**Q.** What about the “conversion of LC3 to LC3II (autophagosome formation)” value [6] of the same molecule?
**A.** converted LC3 to LC3II

**Q.** How did the “inhibition of tumor growth” value (MCF7 tumor xenograft) turn out when C[C@@H]1CN(CCCn2c3ccccc3c3ccccc32)C[C@H](C)N1 [rimcazole, 9-{3-[(3R,5S)-3,5-dimethylpiperazin-1-yl]propyl}-9H-carbazole] was run?
**A.** approximately 50%

**Q.** What about the tumor growth (MCF7 tumor xenograft; tamoxifen (1 mg/kg) and Rimcazole (10 mg/kg) combined, 11 day time course) of the same molecule?
**A.** completely inhibited

**Q.** What about the EC50 [2] of the same molecule?
**A.** 50 ± 8 µM

**Q.** What about the “concentration at which precipitous cell death occurred” value [2] of the same molecule?
**A.** 100 µM

**Q.** What about the “conversion of LC3 to LC3II (autophagosome formation)” value [6] of the same molecule?
**A.** converted LC3 to LC3II

**Q.** And the “inhibition of cell proliferation” value [3]?
**A.** inhibited cell proliferation with comparable potencies in all cell lines

**Q.** How did the “inhibition of tumor growth” value (MCF7 tumor xenograft) turn out when CC/C(=C(\c1ccccc1)c1ccc(OCCN(C)C)cc1)c1ccccc1 [tamoxifen, (Z)-2-[4-(1,2-diphenylbut-1-enyl)phenoxy]-N,N-dimethylethanamine] was run?
**A.** approximately 50%

**Q.** What about the “inhibition of cell proliferation” value [3] of the same molecule?
**A.** inhibited cell proliferation with similar potencies
